Source: patent publication US20070197593A1, “HYDROXYLAMINES AND DERIVATIVES FOR TREATMENT OF INFLAMMATORY CONDITIONS OF THE LIVER” (priority 2006, published 2007)

Tests used:
Sprague Dawley rats = assay: 28-day intravenous toxicity study in rats, liver histopathology (subacute hepatitis); assay type: in vivo
Method: Potential toxicity of Compound 1-HCl was evaluated by intravenous administration to Sprague Dawley rats for 28 days. This study was conducted in compliance with FDA Good Laboratory Practice Standards, 21 CFR 58 and in accordance with OECD Principles of Good Laboratory Practice.
One hundred twelve Sprague Dawley—HsD: SD rats were randomly divided into eight groups and treated with Compound 1 (“test article”) or vehicle, by intravenous administration via the lateral tail vein (slow bolus) (Table 1).
Animals in Groups 1-4 were subjected to a complete necropsy examination. Protocol-specified necropsy procedures included the recording of organ weights (adrenals, brain, hearts, kidneys, liver, testes, ovaries, spleen, thyroids, parathyroids), examination of the external body surface, examination of all orifices, and examination of the cranial, thoracic, and abdominal cavities and their contents. Post-fixation weights for the thyroids/parathyroids were recorded. The following protocol-specified tissues were collected at necropsy: animal identification (not evaluated), abnormalities (gross findings), adrenals, aorta, brain, cecum, cervix, colon, duodenum, epidiymides, esophagus, eye with optic nerve, femur with articular surface, heart, ileum, injection site, jejunum, kidneys, lacrimal glands (exorbital), larynx, liver, lung with mainstem bronchus, mammary gland, mandibular lymph nodes, mesenteric lymph nodes, ovaries, pancreas, pituitary, prostate, rectum, salivary glands, sciatic nerve, seminal vesicles, skeletal muscle (thigh), skin, spinal cord (cervical, midthoracis, lumbar), spleen, sternum with bone marrow, stomach, testes, thymus, thyroid/parathyroid, tongue, trachea, urinary bladder, uterus, and vagina.
On day 29, animals were weighed and sacrificed by CO2 inhalation. Protocol-specific tissues were preserved in 10% neutral buffered formalin (NBF). Protocol-requires tissues were embedded in paraffin, sectioned at approximately 5 microns, and processed to slides stained with hematoxylin and eosin (H&E). Histopathological evaluation was performed by a veterinary pathologist on all rats in Group 1 and Group 4 sacrificed on day 29, as well as for all early deaths. Livers for animals in Groups 2 and 3 were evaluated microscopically.

[1] = tested on: LPS induced TNF-alpha in monocytes; assay: LPS induced TNF-alpha in monocytes (TNF alpha assay); assay type: cell-based; details: Monocyte; compound 10 uM; 5 ng/mL LPS; read-out: Mean Percent Inhibition of TNF-alpha using 5 ng/mL LPS
Method: This test is a standard methodology for assessing the anti-inflammatory activity of compounds. Table 1 provides Percent Inhibition of LPS induced TNF-alpha in monocytes data for 18 hydroxylamine compounds of the invention. Compounds at different concentrations (0, 1, 2.5 and 10 uM) were incubated with 100 ul freshly collected heparinized blood for 10 minutes. […] Following incubation with LPS, PBS was added (800 uL) and samples were spun for 10 minutes at 1500 g. TNFα protein concentrations were measured using R&D Systems high sensitivity ELISA kit. THP-1 cells (0.5×10^6 cells/mL) were incubated with the compounds (0, 1, 2.5 and 10 uM) for 3 hrs in humidified chamber, 37° C., 5% CO2, 2% FBS in RPMI medium. Cells were induced with 25 ng/mL LPS for another 3 hrs. Cells were collected and spun at 1500 g for 10 minutes. Supernatant was collected and analyzed for TNFα.

CC1(C)CC(OC(=O)C2CC2)CC(C)(C)N1O.Cl [Compound 1, 1-Hydroxy-4-cyclopropanecarbonyloxy-2,2,6,6-tetramethylpiperidine hydrochloride]
Subacute hepatic inflammation (hepatitis) incidence, number of rats with minimal subacute hepatitis (Sprague Dawley rats; Group 2, 1.0 mg/kg/day i.v. 28 days, female rats (8 per group), vehicle Group 1 females 6/8): one | Subacute hepatic inflammation (hepatitis) incidence (Sprague Dawley rats; Group 2, 1.0 mg/kg/day i.v. 28 days, male rats (8 per group), vehicle Group 1 males 8/8): not present in any | Subacute hepatic inflammation (hepatitis) incidence (Sprague Dawley rats; Group 3, 2.5 mg/kg/day i.v. 28 days, female rats (8 per group), vehicle Group 1 females 6/8): not present in any | Subacute hepatic inflammation (hepatitis) incidence, number of rats with minimal subacute hepatitis (Sprague Dawley rats; Group 3, 2.5 mg/kg/day i.v. 28 days, male rats (8 per group), vehicle Group 1 males 8/8): one | Subacute hepatic inflammation (hepatitis) incidence (Sprague Dawley rats; Group 4, 7.5 mg/kg/day i.v. 28 days, female rats (8 per group), vehicle Group 1 females 6/8): not present in any | Subacute hepatic inflammation (hepatitis) incidence (Sprague Dawley rats; Group 4, 7.5 mg/kg/day i.v. 28 days, male rats (8 per group), vehicle Group 1 males 8/8): not present in any | Effect on background liver inflammation (idiopathic lesion) in treated rats (Sprague Dawley rats; Groups 2-4 (1.0-7.5 mg/kg/day i.v. 28 days), male and female rats): reduction in the incidence of this idiopathic lesion | inhibition at 10 µM [1]: 68 ± 6%
